The record followed here is ChEMBL document CHEMBL5724914, “Linking interpersonal differences in gut microbiota composition and drug biotransformation activity” (2024).

Data set [1] in a line: The drug is tested on Z-019 corresponding to rat gut metagenome with ENA study accession number: PRJEB37062 and ENA sample accession number: ERS12561818 for biotransformation under anaerobic condition. The drug concentrations were measured over 9 timepoints collected between 0 and 24 hours of incubation by liquid-chromatography-coupled mass spectrometry (LC–MS). To be noted: 2 µM.

Data set [2] in a line: The drug is tested on Z-017 corresponding to mouse gut metagenome with ENA study accession number: PRJEB37062 and ENA sample accession number: ERS12561816 for biotransformation under anaerobic condition. The drug concentrations were measured over 9 timepoints collected between 0 and 24 hours of incubation by liquid-chromatography-coupled mass spectrometry (LC–MS). As to conditions: 2 µM.

Data set [3] can be described thus: The drug is tested on Z-007 corresponding to rat gut metagenome with ENA study accession number: PRJEB37062 and ENA sample accession number: ERS12561807 for biotransformation under anaerobic condition. The drug concentrations were measured over 9 timepoints collected between 0 and 24 hours of incubation by liquid-chromatography-coupled mass spectrometry (LC–MS). As to conditions: 2 µM.

The nature of data set [4]: The drug is tested on Z-003 corresponding to pig gut metagenome with ENA study accession number: PRJEB37062 and ENA sample accession number: ERS12561803 for biotransformation under anaerobic condition. The drug concentrations were measured over 9 timepoints collected between 0 and 24 hours of incubation by liquid-chromatography-coupled mass spectrometry (LC–MS). To be noted: 2 µM.

Data set [5] can be described thus: The drug is tested on Z-002 corresponding to rabbit gut metagenome with ENA study accession number: PRJEB37062 and ENA sample accession number: ERS12561802 for biotransformation under anaerobic condition. The drug concentrations were measured over 9 timepoints collected between 0 and 24 hours of incubation by liquid-chromatography-coupled mass spectrometry (LC–MS). To be noted: 2 µM.

A short description of data set [6]: The drug is tested on WLS-240 corresponding to human gut metagenome with ENA study accession number: PRJEB37062 and ENA sample accession number: ERS12561773 for biotransformation under anaerobic condition. The drug concentrations were measured over 9 timepoints collected between 0 and 24 hours of incubation by liquid-chromatography-coupled mass spectrometry (LC–MS). To be noted: 2 µM.

The nature of data set [7]: The drug is tested on WLS-098 corresponding to human gut metagenome with ENA study accession number: PRJEB37062 and ENA sample accession number: ERS12561754 for biotransformation under anaerobic condition. The drug concentrations were measured over 9 timepoints collected between 0 and 24 hours of incubation by liquid-chromatography-coupled mass spectrometry (LC–MS). As to conditions: 2 µM.

A short description of data set [8]: The drug is tested on WLS-073 corresponding to human gut metagenome with ENA study accession number: PRJEB37062 and ENA sample accession number: ERS12561749 for biotransformation under anaerobic condition. The drug concentrations were measured over 9 timepoints collected between 0 and 24 hours of incubation by liquid-chromatography-coupled mass spectrometry (LC–MS). To be noted: 2 µM.

A short description of data set [9]: The drug is tested on WLS-069 corresponding to human gut metagenome with ENA study accession number: PRJEB37062 and ENA sample accession number: ERS12561748 for biotransformation under anaerobic condition. The drug concentrations were measured over 9 timepoints collected between 0 and 24 hours of incubation by liquid-chromatography-coupled mass spectrometry (LC–MS). As to conditions: 2 µM.

For data set [10] the following is noted: human gut metagenome, 24 h, 2 µM.
The conditions of data set [11]: human gut metagenome, 24 h, 2 µM. The source holds these as a separate data set.
The conditions of data set [12]: human gut metagenome, 24 h, 2 µM. This is another data set of the same source.
The conditions of data set [13]: human gut metagenome, 24 h, 2 µM. The source holds these as a separate data set.
The conditions of data set [14]: human gut metagenome, 24 h, 2 µM. The source holds these as a separate data set.
The conditions of data set [15]: human gut metagenome, 24 h, 2 µM. This is another data set of the same source.
The conditions of data set [16]: human gut metagenome, 24 h, 2 µM. The source holds these as a separate data set.
The conditions of data set [17]: human gut metagenome, 24 h, 2 µM. This is another data set of the same source.
For data set [18] the following is noted: human gut metagenome, 24 h, 2 µM. This is another data set of the same source.
The conditions of data set [19]: human gut metagenome, 24 h, 2 µM. The source holds these as a separate data set.
For data set [20] the following is noted: human gut metagenome, 24 h, 2 µM. This is another data set of the same source.

The structures appear in SMILES notation.
Note: call rule not given here.

Consider `O=C(CCCN1CCC2(CC1)C(=O)NCN2c1ccccc1)c1ccc(F)cc1` [SPIPERONE], for which the “Bacterial Biotransformation” value in data set [1], in data set [2], in data set [3], in data set [4], in data set [5] and in [6] was “Compound NOT metabolized” in each case. The “Bacterial Biotransformation” value is listed as “Compound metabolized” in data set [7]; “Compound NOT metabolized” in [8]; “Compound metabolized” in data set [9]; “Compound metabolized” in [10]; “Compound NOT metabolized” in data set [11]; “Compound metabolized” in data set [12]. The “Bacterial Biotransformation” value is given as “Compound NOT metabolized” in data set [13]; “Compound metabolized” in data set [14]; “Compound NOT metabolized” in [15]; “Compound metabolized” in data set [16]; “Compound NOT metabolized” in [17]; “Compound metabolized” in data set [18]. The “Bacterial Biotransformation” value in data set [19] and in data set [20] was “Compound metabolized” each time.

As for `CN(C)CCOC(C)(c1ccccc1)c1ccccn1.O=C(O)CCC(=O)O` (stereo not given) [DOXYLAMINE SUCCINATE], the “Bacterial Biotransformation” value in [1], in data set [2], in [3], in data set [4], in [5] and in data set [6] was “Compound NOT metabolized” in each case. The “Bacterial Biotransformation” value in [7], in [8], in data set [9], in data set [10], in [11] and in data set [12] was “Compound NOT metabolized” each time. Moreover, the “Bacterial Biotransformation” value in data set [13], in [14], in data set [15], in data set [16], in data set [17] and in data set [18] was “Compound NOT metabolized” in each case. The “Bacterial Biotransformation” value in data set [19] and in data set [20] was “Compound NOT metabolized” throughout.

Consider `C=C[C@H]1CN2CC[C@H]1C[C@H]2[C@H](O)c1ccnc2ccc(OC)cc12.C=C[C@H]1CN2CC[C@H]1C[C@H]2[C@H](O)c1ccnc2ccc(OC)cc12.O.O.O=S(=O)(O)O` [QUININE SULFATE], for which the “Bacterial Biotransformation” value is “Compound NOT metabolized” in [1]; “Compound NOT metabolized” in data set [2]; “Compound NOT metabolized” in data set [3]; “Compound NOT metabolized” in data set [4]; “Compound NOT metabolized” in [5]; “Compound metabolized” in data set [6]. In addition, the “Bacterial Biotransformation” value in [7] is listed as “Compound metabolized”; in [8], “Compound NOT metabolized”; in data set [9] it was “Compound NOT metabolized”; in data set [10], “Compound metabolized”; in data set [11], “Compound metabolized”; in data set [12], “Compound metabolized”. Further, the “Bacterial Biotransformation” value in data set [13] is recorded as “Compound NOT metabolized”; in data set [14], “Compound metabolized”; in data set [15], “Compound NOT metabolized”; in data set [16] it was “Compound metabolized”; in [17], “Compound NOT metabolized”; in [18], “Compound metabolized”. For the same compound, the “Bacterial Biotransformation” value in [19] and in data set [20] was “Compound NOT metabolized” each time.

In the case of `CC(=O)O[C@]1(C(C)=O)CC[C@H]2[C@@H]3C=C(C)C4=CC(=O)CC[C@]4(C)[C@H]3CC[C@@]21C` [MEGESTROL ACETATE], the “Bacterial Biotransformation” value in data set [1] is reported as “Compound NOT metabolized”; in [2], “Compound metabolized”; in data set [3] it was “Compound metabolized”; in [4], “Compound metabolized”; in data set [5], “Compound metabolized”; in data set [6], “Compound metabolized”. Besides, the “Bacterial Biotransformation” value in data set [7], in data set [8], in data set [9], in [10], in data set [11] and in data set [12] was “Compound metabolized” in each case. Further, the “Bacterial Biotransformation” value in [13], in data set [14], in data set [15], in data set [16], in data set [17] and in data set [18] was “Compound metabolized” in each case. Also, the “Bacterial Biotransformation” value in data set [19] and in [20] was “Compound metabolized” each time.

`Clc1cccc(Cl)c1N=C1NCCN1` [CLONIDINE]: the “Bacterial Biotransformation” value is on record as “Compound NOT metabolized” in data set [1]; “Compound NOT metabolized” in [2]; “Compound NOT metabolized” in data set [3]; “Compound metabolized” in [4]; “Compound metabolized” in [5]; “Compound metabolized” in [6]. In addition, the “Bacterial Biotransformation” value in data set [7] is on record as “Compound metabolized”; in data set [8], “Compound NOT metabolized”; in data set [9], “Compound metabolized”; in data set [10], “Compound metabolized”; in data set [11], “Compound NOT metabolized”; in data set [12], “Compound metabolized”. Besides, the “Bacterial Biotransformation” value in data set [13] is recorded as “Compound metabolized”; in data set [14], “Compound metabolized”; in data set [15], “Compound NOT metabolized”; in [16], “Compound metabolized”; in [17] it was “Compound metabolized”; in [18] it was “Compound metabolized”. The “Bacterial Biotransformation” value in data set [19] and in data set [20] was “Compound metabolized” throughout.
